# Laboratory results published in paper PMC5818060 (Journal of Cell Science, 2018).
# How the values were obtained:
# [1] = tested on: endogenous CK1 / CK1 sensor in HEK293T cells; test: CK1 FRET biosensor, microplate reader FRET/CFP ratio; assay type: cell-based, human; details: HEK293T, CK1 sensor; D4476 0.4 or 2 µM in Fig. 1F-H, added 2-4 h prior to analysis; n=3
# Protocol: HEK293T cells were seeded at a density of 20,000 cells/well on 96-well black microplates (PS, μClear, clear bottom, chimney well, Greiner No. 655090). Transfection was performed as described above. Unless indicated otherwise, the respective cell populations were transfected with 50-100 ng CK1 FRET biosensor, 100 ng regulator (i.e. N-Flag DDX3X) and 1-10 ng kinase (i.e. N-Flag CK1ε). Either empty pCS2 N-Flag vector or luciferase were used to transfect the same amount of DNA in every well. Generally, the different samples were run in triplicate for each individual experiment. Owing to the varying values for the FRET/CFP ratios based on transfection efficiency, cell density and the time point of analysis, we always set the FRET/CFP ratio of cells only transfected with the CK1 sensor to 1 in order to compare individual experiments. Importantly, the individual figures with the CK1 sensor represent only experiments performed on the same 96-well plate with the same cell density, transfection efficiency and time point.
# Where applicable, the small-molecule CK1 inhibitor D4476 (BioVision) was added to the cells 2-4 h prior to the analysis. For each triplicate the respective volume of D4476 (in DMSO) was added together with 1 μl Fugene HD (Promega) to 60 μl serum-free medium. The solution was mixed, incubated for 15 min and added to the cells. […] In the corresponding controls an equal amount of DMSO instead of the inhibitor was added to the medium. Analysis was performed 48-60 h after transfection on an Infinite M1000 PRO microplate reader (Tecan) by exciting CFP with a wavelength of 433 nm and measuring the resulting emission at 460-600 nm in 2 nm increments. Fluorometric spectra were background subtracted with spectra recorded from wells with non-transfected cells. Resulting FRET/CFP ratios were calculated by dividing the intensity values at the respective peaks (478 nm for CFP, 528 nm for YFP) and analyzed essentially as described ([Fritz et al., 2013]). Where indicated, CK1δ/ε-derived peptides were transfected into cells using Metafectene (Biontex) 1 hour before measurements.
# DDX3X = test: ATPase assay of DDX3X; assay type: biochemical, human; details: CK1ε pre-incubated with D4476; dsRNA-stimulated
# Protocol: For the ATPase assay, Flag-tagged DDX3X full-length constructs were expressed in HEK293T cells. After purifying and eluting DDX3X from the beads, an aliquot of the eluates was resolved by SDS-PAGE in order to monitor the different DDX3X levels via western blotting and ImageJ. Based on this comparison, similar amounts of full-length DDX3X protein were used. Approximately 100 ng Flag-DDX3X protein and 10 ng His-CK1ε were used in a 60 μl reaction mix (reaction buffer: 20 mM Tris-HCl, pH 7.4, 200 mM NaCl, 0.5 mM DTT, 1 mM MgCl2, 1 mM ATP) with dsRNA (17 nM, 34 nM, 68 nM); the reaction was carried out at 37°C for 40 min. To phosphorylate DDX3X, 500 ng His-CK1εΔC or His-CK1εΔC^K38R were added in kinase buffer before eluting the DDX3X protein from the Sepharose magnetic Flag beads (Sigma). Incubation was performed at 37°C for 30 min. Then, beads were washed with 50 mM Tris-HCl, pH 7.5 and 500 mM NaCl before elution with Flag peptide. Termination of the helicase reaction was done with 10 μl of 50% TCA solution added to each reaction followed by centrifugation at 3000 g for 5 min at 4°C. Reaction mix was mixed with coloring solution (35 mM ammonium molybdate, 10 mM zinc acetate, 10% ascorbic acid, pH 5) in a 96-well plate before analysis using a spectrometer (wavelength 700 nm).
# [2] = reason given for adding Fugene HD; ref Rena et al., 2004; cited from earlier work
# Protocol: Where applicable, the small-molecule CK1 inhibitor D4476 (BioVision) was added to the cells 2-4 h prior to the analysis. For each triplicate the respective volume of D4476 (in DMSO) was added together with 1 μl Fugene HD (Promega) to 60 μl serum-free medium. The solution was mixed, incubated for 15 min and added to the cells. […] In the corresponding control ...
compound,measurement,setting,value
"NC(=O)c1ccc(-c2nc(-c3ccc4c(c3)OCCO4)c(-c3ccccn3)[nH]2)cc1 [D4476, reference compound]",effect of CK1 inhibitor on FRET/CFP ratio of CK1 sensor,[1],reduced as a result of the inhibitor treatment
same,effect of CK1 inhibitor on CK1ε-mediated inhibition of DDX3X ATPase activity,DDX3X,prevented inhibition of the ATPase activity of DDX3X
same,cell permeability,[2],poor cell permeability
